Values after ≈ are worked out from the molar mass of the structure shown. Starred links: 1 amine or outer side, 2 acyl side, 3 side chain; linkers in the order of their positions; H or OH if unused. Positions of bridges follow the written chain, without caps; N, C: chain ends. Non-standard residues stand in square brackets, D forms with d. Residues, ends and D or L forms follow the SMILES beside them. ξ: configuration not given here. Arg(Nω-βLac) = N=C(NCCC[C@H](N)C(=O)O)N[C@@H]1O[C@H](CO)[C@@H](O[C@@H]2O[C@H](CO)[C@H](O)[C@H](O)[C@H]2O)[C@H](O)[C@H]1O; ξαMeNle(6-ylidene) = CC(CCCC=[*:3])(N[*:1])C(=O)[*:2]; R8 = C=CCCCCCC[C@@](C)(N)C(=O)O; S5 = C=CCCC[C@](C)(N)C(=O)O; ξV = CC(C)C(N)C(=O)O
How the values were obtained:
Klebsiella pneumoniae = assay: Antimicrobial activity against Klebsiella pneumoniae ATCC 13883 assessed as growth inhibition measured after 8 hrs incubation by standard broth dilution assay; format: functional
Pseudomonas aeruginosa = assay: Antimicrobial activity against Pseudomonas aeruginosa ATCC 27853 assessed as growth inhibition measured after 8 hrs incubation by standard broth dilution assay; format: functional
Staphylococcus aureus = assay: Antimicrobial activity against methicillin-resistant Staphylococcus aureus ATCC 43300 assessed as growth inhibition measured after 8 hrs incubation by standard broth dilution assay; format: functional
Streptococcus pneumoniae = assay: Antimicrobial activity against Streptococcus pneumoniae ATCC 49619 assessed as growth inhibition measured after 8 hrs incubation by standard broth dilution assay; format: functional
[1] = Hemolytic activity in BALB/c mouse red blood cells assessed as hemolysis incubated for 1 hrs; format: toxicity, cell-based, Erythrocyte; details: read-out: HD50

Structure (SMILES)	MIC (Klebsiella pneumoniae) [µg/mL]	MIC (Pseudomonas aeruginosa) [µg/mL]	MIC (Staphylococcus aureus) [µg/mL]	MIC (Streptococcus pneumoniae) [µg/mL]	HC50 at 1 h [1] [µg/mL]
CC(=O)N[C@@H](CC(C)C)C(=O)N[C@@H](CCCCN)C(=O)N[C@@H](CCCNC(=N)N)C(=O)N[C@H](C(=O)N[C@@H](Cc1c[nH]c2ccccc12)C(=O)N[C@@H](CCCCN)C(=O)N[C@@H](CCCNC(=N)N)C(=O)N[C@H](C(=O)N[C@@H](Cc1ccccc1)C(=O)N[C@@H](CCCCN)C(=O)N[C@@H](CC(C)C)C(=O)N[C@@H](CC(C)C)C(=O)N[C@@H](CCCCN)C(=O)N[C@@]1(C)CCC/C=C\CCC[C@@](C)(C(=O)N[C@@H](CC(C)C)C(=O)N[C@@H](CCCCN)C(=O)N[C@@H](CCCCN)C(=O)N2CCC[C@H]2C(=O)N[C@@H](CCCCN)C(=O)N[C@@H](CCCNC(=N)N)C(N)=O)NC(=O)[C@H](CCCNC(=N)N)NC(=O)[C@H](Cc2c[nH]c3ccccc23)NC(=O)[C@H](Cc2ccc(O)cc2)NC1=O)C(C)C)C(C)C (Ac-LKRVWKRVFKLLK[S5]YWR[S5]LKKPKR-NH2; staple (Z) 14-18)	19.2 (≈ 5.89 µM)	5 (≈ 1.53 µM)	4.9 (≈ 1.5 µM)	4.7 (≈ 1.44 µM)	8.9
CC(=O)N[C@@H](CC(C)C)C(=O)N[C@@H](CCCCN)C(=O)N[C@@H](CCCNC(=N)N)C(=O)N[C@H](C(=O)N[C@@H](Cc1c[nH]c2ccccc12)C(=O)N[C@@H](CCCCN)C(=O)N[C@@H](CCCNC(=N)N)C(=O)N[C@H](C(=O)N[C@@H](Cc1ccccc1)C(=O)N[C@@H](CCCCN)C(=O)N[C@@H](CC(C)C)C(=O)N[C@@H](CC(C)C)C(=O)N[C@@H](CCCCN)C(=O)N[C@@]1(C)CCC/C=C\CCC[C@@](C)(C(=O)N[C@@H](CC(C)C)C(=O)N[C@@H](CCCCN)C(=O)N[C@@H](CCCCN)C(=O)N2CCC[C@H]2C(=O)N[C@H](C(=O)N[C@@H](CCCNC(=N)N)C(N)=O)C(C)C)NC(=O)[C@H](CCCNC(=N)N)NC(=O)[C@H](Cc2c[nH]c3ccccc23)NC(=O)[C@H](CCCCN)NC1=O)C(C)C)C(C)C (Ac-LKRVWKRVFKLLK[S5]KWR[S5]LKKPVR-NH2; staple (Z) 14-18)	38 (≈ 11.9 µM)	5 (≈ 1.56 µM)	10.1 (≈ 3.16 µM)	2.4 (≈ 0.75 µM)	53.6
CC(=O)N[C@@H](CC(C)C)C(=O)N[C@@H](CCCCN)C(=O)N[C@@H](CCCNC(=N)N)C(=O)N[C@H](C(=O)N[C@@H](Cc1c[nH]c2ccccc12)C(=O)N[C@@H](CCCCN)C(=O)N[C@@H](CCCNC(=N)N)C(=O)N[C@H](C(=O)N[C@@H](Cc1ccccc1)C(=O)N[C@@H](CCCCN)C(=O)N[C@@H](CC(C)C)C(=O)N[C@@H](CC(C)C)C(=O)N[C@@H](CCCCN)C(=O)N[C@@]1(C)CCC/C=C\CCC[C@@](C)(C(=O)N[C@@H](CC(C)C)C(=O)N[C@@H](CCCCN)C(=O)N[C@@H](CCCCN)C(=O)N[C@@H](CCCCN)C(=O)N[C@H](C(=O)N[C@@H](CCCNC(=N)N)C(N)=O)C(C)C)NC(=O)[C@H](CCCNC(=N)N)NC(=O)[C@H](Cc2c[nH]c3ccccc23)NC(=O)[C@H](Cc2ccc(O)cc2)NC1=O)C(C)C)C(C)C (Ac-LKRVWKRVFKLLK[S5]YWR[S5]LKKKVR-NH2; staple (Z) 14-18)	10.1 (≈ 3.09 µM)	5 (≈ 1.53 µM)	4.9 (≈ 1.5 µM)	4.7 (≈ 1.44 µM)	13.1
CC(=O)N[C@@H](CCCCN)C(=O)N[C@@H](CCCCN)C(=O)N[C@@H](CCCNC(=N)N)C(=O)N[C@H](C(=O)N[C@]1(C)CCCCCC/C=C\CCC[C@@](C)(C(=O)N[C@@H](CCCCN)C(=O)N[C@@]2(C)CCC/C=C\CCCC(C)(C(=O)N[C@@H](CC(C)C)C(=O)N[C@@H](CCCCN)C(=O)N[C@@H](CCCCN)C(=O)N3CCC[C@H]3C(=O)N[C@H](C(=O)N[C@@H](CCCNC(=N)N)C(N)=O)C(C)C)NC(=O)[C@H](CCCNC(=N)N)NC(=O)[C@H](Cc3c[nH]c4ccccc34)NC(=O)[C@H](Cc3ccc(O)cc3)NC2=O)NC(=O)[C@H](CC(C)C)NC(=O)[C@H](CCCCN)NC(=O)[C@H](Cc2ccccc2)NC(=O)C(C(C)C)NC(=O)[C@H](CCCNC(=N)N)NC(=O)[C@H](CCCCN)NC1=O)C(C)C (stereo not given in full) (Ac-KKRV[R8]KR[ξV]FKL[S5]K[S5]YWR[ξαMeNle(6-ylidene)]LKKPVR-NH2; staple (Z) 5-12, 14-18)	4.9 (≈ 1.51 µM)	5 (≈ 1.54 µM)	4.9 (≈ 1.51 µM)	2.4 (≈ 0.74 µM)	12.7
CC(=O)N[C@@H](CC(C)C)C(=O)N[C@@H](CCCCN)C(=O)N[C@@H](CCCNC(=N)N)C(=O)N[C@H](C(=O)N[C@@H](Cc1c[nH]c2ccccc12)C(=O)N[C@@H](CCCCN)C(=O)N[C@@H](CCCNC(=N)N)C(=O)N[C@H](C(=O)N[C@@H](Cc1ccccc1)C(=O)N[C@@H](CCCCN)C(=O)N[C@@H](CC(C)C)C(=O)N[C@@H](CC(C)C)C(=O)N[C@@H](CCCCN)C(=O)N[C@@H](CCCNC(=N)N)C(=O)N[C@@H](Cc1ccc(O)cc1)C(=O)N[C@@H](Cc1c[nH]c2ccccc12)C(=O)N[C@@H](CCCNC(=N)N)C(=O)N[C@@H](CCC(N)=O)C(=O)N[C@@H](CC(C)C)C(=O)N[C@@H](CCCCN)C(=O)N[C@@H](CCCCN)C(=O)N1CCC[C@H]1C(=O)N[C@H](C(=O)N[C@@H](CCCNC(=N)N[C@@H]1O[C@H](CO)[C@@H](O[C@@H]2O[C@H](CO)[C@H](O)[C@H](O)[C@H]2O)[C@H](O)[C@H]1O)C(N)=O)C(C)C)C(C)C)C(C)C (Ac-LKRVWKRVFKLLKRYWRQLKKPV[Arg(Nω-βLac)]-NH2)	38 (≈ 10.6 µM)	5 (≈ 1.39 µM)	4.9 (≈ 1.36 µM)	4.7 (≈ 1.31 µM)	39.7

Source: ChEMBL document CHEMBL6153110, “Peptide Double-Stapling and Arginine N-Glycosylation Triggered the Development of Therapeutic Antimicrobial Peptides Capable of Killing Drug-Resistant Bacteria in Mice” (J Med Chem, 2025)
